Columns and labels:
[1] = system: C. aurius 470126 (clinical isolate); test: MIC, microtiter plate dilution assay; format: cell-based; conditions: 5 × 10^5 CFU/ml, 37°C, OD600 after 48 h, triplicate
Description: (§1) The antimicrobial activity was tested by well diffusion assay as mentioned earlier ([Singh et al., 2014]). Strain A52 was grown for 24 h in 500 ml of nutrient broth (NB, Hi-media, India) using 1000 ml flask and subsequently cells were removed by centrifugation (10,000 rpm for 15 min at 4°C). Supernatant was filtered through 0.22 μm filter (Millipore, United States) to obtain cell-free fermented broth (CFB) that was used for antimicrobial assay (50 μl) against various indicator strains and the activity was measured as diameter of inhibition zone. Test strains used were Staphylococcus aureus (MTCC 1430), Bacillus subtilis (MTCC 121), B. firmus (MTCC 488), B. licheniformis (MTCC 429), B. thuringiensis (MTCC 1953), Escherichia coli (MTCC 1610), Micrococcus luteus (MTCC 106), Steptococcus pyrogens (MTCC 1928), S. anginosus (MTCC 1929), S. oralis (MTCC 2696), S. mutans (MTCC 497), Candida albicans (MTCC 1637), C. albicans (MTCC 183), C. albicans (MTCC 227), C. tropicalis (MTCC 184), C. glabrata (MTCC 3019), C. haemulonii (MTCC 2766), and C. inconsplicue (MTCC 1074). The phytopathogenic fungi employed in this study were Alternaria brassicicola (MTCC 2102), Colletotrichum acutatum (MTCC 1037), and Fusarium moniliforme (MTCC 158). Clinical isolates of Candida were provided by National Culture Collection of Pathogenic Fungi (NCCPF), PGIMER, Chandigarh, India.
(§2) The minimum inhibitory concentration (MIC) of HPLC purified peptides was evaluated by using microtiter plate dilution assay. The peptide concentration was estimated using BCA protein assay (Thermo Fisher Scientific, United States) method as described by manufacturer. Actively growing test strains (5 × 10^5 CFU/ml) were inoculated in a 96-well plate with different concentrations of the peptides and plates were incubated for 24–48 h at 37°C (final volume in each well is 200 μl). OD was measured at 600 nm after 24 and 48 h for bacteria and yeast, respectively, using ELISA microplate reader (Thermo, United States). MIC against phytopathogenic fungi was determined using 96-well microtiter plate assay ([Kaur et al., 2016]). In 96-well microplates, 100 μl of fungal spore suspension (1 × 10^5 spores/ml) prepared in potato dextrose broth (PDB, Hi-media, India) was mixed with100 μl of fresh PDB containing different concentrations of lipopeptide. Control well contained 100 μl of fungal spore suspension and 100 μl of only medium. The microplates were incubated at 25°C and readings were recorded at 600 nm after 48 h. The lowest concentration showing no growth was considered as MIC. Each test was done in triplicate and optical density (OD600) of peptide treated wells were compared with uninoculated wells (blank medium control).

C. glabrata MTCC 3019 = test: MIC, microtiter plate dilution assay; format: cell-based; conditions: 5 × 10^5 CFU/ml, 37°C, OD600 after 48 h, triplicate
Description: as §1, §2

[2] = system: C. glabrata SKSS ID (clinical isolate); test: MIC, microtiter plate dilution assay; format: cell-based; conditions: 5 × 10^5 CFU/ml, 37°C, OD600 after 48 h, triplicate
Description: as §1, §2

[3] = system: C. haemulonii 470125 (clinical isolate); test: MIC, microtiter plate dilution assay; format: cell-based; conditions: 5 × 10^5 CFU/ml, 37°C, OD600 after 48 h, triplicate
Description: as §1, §2

C. haemulonii MTCC 2766 = test: MIC, microtiter plate dilution assay; format: cell-based; conditions: 5 × 10^5 CFU/ml, 37°C, OD600 after 48 h, triplicate
Description: as §1, §2

[4] = system: C. inconsplicue MTCC 1074; test: MIC, microtiter plate dilution assay; format: cell-based; conditions: 5 × 10^5 CFU/ml, 37°C, OD600 after 48 h, triplicate
Description: as §1, §2

[5] = system: C. kefyr 410004 (clinical isolate); test: MIC, microtiter plate dilution assay; format: cell-based; conditions: 5 × 10^5 CFU/ml, 37°C, OD600 after 48 h, triplicate
Description: as §1, §2

[6] = system: C. krusei 440009 (clinical isolate); test: MIC, microtiter plate dilution assay; format: cell-based; conditions: 5 × 10^5 CFU/ml, 37°C, OD600 after 48 h, triplicate
Description: as §1, §2

[7] = system: C. parasilosis 450030 (clinical isolate); test: MIC, microtiter plate dilution assay; format: cell-based; conditions: 5 × 10^5 CFU/ml, 37°C, OD600 after 48 h, triplicate
Description: as §1, §2

[8] = system: C. rugos 470141 (clinical isolate); test: MIC, microtiter plate dilution assay; format: cell-based; conditions: 5 × 10^5 CFU/ml, 37°C, OD600 after 48 h, triplicate
Description: as §1, §2

[9] = system: C. tropicalis 420024 (clinical isolate); test: MIC, microtiter plate dilution assay; format: cell-based; conditions: 5 × 10^5 CFU/ml, 37°C, OD600 after 48 h, triplicate
Description: as §1, §2

C. tropicalis MTCC 184 = test: MIC, microtiter plate dilution assay; format: cell-based; conditions: 5 × 10^5 CFU/ml, 37°C, OD600 after 48 h, triplicate
Description: as §1, §2

S. anginosus MTCC1929 = test: MIC, microtiter plate dilution assay; format: cell-based; conditions: 5 × 10^5 CFU/ml, 37°C, OD600 after 24 h, triplicate
Description: as §1, §2

S. mutans MTCC 497 = test: MIC, microtiter plate dilution assay; format: cell-based; conditions: 5 × 10^5 CFU/ml, 37°C, OD600 after 24 h, triplicate
Description: as §1, §2

S. oralis MTCC 2696 = test: MIC, microtiter plate dilution assay; format: cell-based; conditions: 5 × 10^5 CFU/ml, 37°C, OD600 after 24 h, triplicate
Description: as §1, §2

S. pyogenes MTCC 1928 = test: MIC, microtiter plate dilution assay; format: cell-based; conditions: 5 × 10^5 CFU/ml, 37°C, OD600 after 24 h, triplicate
Description: as §1, §2

C. albicans MTCC 1637 = test: MIC, microtiter plate dilution assay; format: cell-based, Candida albicans; conditions: 5 × 10^5 CFU/ml, 37°C, OD600 after 48 h, triplicate
Description: as §1, §2

C. albicans MTCC 227 = test: MIC, microtiter plate dilution assay; format: cell-based, Candida albicans; conditions: 5 × 10^5 CFU/ml, 37°C, OD600 after 48 h, triplicate
Description: as §1, §2

rabbit blood cells = test: Hemolysis assay; format: cell-based, New Zealand white rabbit
Description: For hemolysis assay blood was collected from New Zealand white rabbit, centrifuged, washed three times, and resuspended in phosphate-buffered saline (PBS). Cells were counted using hemocytometer (adjusted to 2 × 10^8 cells/ml) and treated with different concentrations of peptides (between 10 and 200 μg/ml). They were incubated in a CO2 incubator for 24 h at 37°C and processed to observe release of hemoglobin as described earlier ([Singh et al., 2014]). PBS and 0.1% Triton X-100 were used as agents for 0 and 100% hemolysis, respectively.

[10] = system: A. brassicicola MTCC 2102 spores; test: Effect on fungal spores, phase contrast microscopy; format: cell-based, Alternaria brassicicola
Description: The effect of peptide on cell membrane was determined by scanning electron microscopy (SEM) and transmission electron microscopy (TEM) after treatment with AMPs. For this, test strains S. aureus MTCC 1430 and C. albicans MTCC 183 were cultured to mid-log phase in respective media. The cells were harvested by centrifugation at 10,000 × g for 10 min, washed thrice with 1X PBS, and re-suspended to adjust an OD600 of 0.2. […] Following the incubation, cells were processed for SEM and TEM as described ([Raje et al., 2006]). The specimens were completely dried using freeze drier, coated with gold, and visualized under a scanning electron microscope (ZEISS, Germany). For TEM (JEOL, JEM 2100, United States), cells were treated with peptide, washed, and subjected to negative stain 0.1% sodium phosphotungstate (Sigma, United States) for visualization. Effect of A52 lipopeptide on fungal spore was observed through a phase contrast microscope (Nickon H600L, Japan).

Substance: Glu^1-Leu/Ile^2-Leu^3-Val^4-Asp^5-Leu^6-Leu/Ile^7 and a β-OH hexadecane fatty acid chain (lariat or depsi) [Lipopeptide A52, cyclic surfactin-like lipopeptide, 7 amino acids and C16 β-hydroxy fatty acid, 1061.9 Da, from B. subtilis strain A52]
- MIC value, C. aurius 470126 [1]: 26 µg/mL
- MIC value, C. glabrata MTCC 3019 (C. glabrata MTCC 3019): 16 µg/mL
- MIC value, C. glabrata SKSS ID [2]: 16 µg/mL
- MIC value, C. haemulonii 470125 [3]: 28 µg/mL
- MIC value, C. haemulonii MTCC 2766 (C. haemulonii MTCC 2766): 20 µg/mL
- MIC value, C. inconsplicue MTCC 1074 [4]: 16 µg/mL
- MIC value, C. kefyr 410004 [5]: 26 µg/mL
- MIC value, C. krusei 440009 [6]: 12 µg/mL
- MIC value, C. parasilosis 450030 [7]: 28 µg/mL
- MIC value, C. rugos 470141 [8]: 16 µg/mL
- MIC value, C. tropicalis 420024 [9]: 28 µg/mL
- MIC value, C. tropicalis MTCC 184 (C. tropicalis MTCC 184): 12 µg/mL
- MIC value, S. anginosus MTCC1929 (S. anginosus MTCC1929): 4 µg/mL
- MIC value, S. mutans MTCC 497 (S. mutans MTCC 497): 6 µg/mL
- MIC value, S. oralis MTCC 2696 (S. oralis MTCC 2696): 4 µg/mL
- MIC value, S. pyogenes MTCC 1928 (S. pyogenes MTCC 1928): 2 µg/mL
- MIC value, C. albicans MTCC 1637 (C. albicans MTCC 1637): 28 µg/mL
- MIC value, C. albicans MTCC 227 (C. albicans MTCC 227): 24 µg/mL
- hemolytic activity (rabbit blood cells): demonstrated hemolytic activity
- lysis of fungal spores [10]: able to lyse the spores

From article PMC7300217, “Surfactin Like Broad Spectrum Antimicrobial Lipopeptide Co-produced With Sublancin From Bacillus subtilis Strain A52: Dual Reservoir of Bioactives” (Frontiers in Microbiology, 2020)
